# Test results taken from patent US10888622B2, “Nanocomplexes of modified peptides or proteins” (Trustees of Tufts College, priority 2013, dated 2021).
# Test system: B16F10 cancer cells
# Assay: In vitro protein transfection: delivery of RNase A into B16F10 cancer cells, cell viability by Alamar Blue assay
# Format: cell-based
# Protocol: Compositions A-D and Comparative Compositions A′-D′ and D″ were tested for delivery of RNase A into B16F10 cancer cells.
# B16F10 cancer cells were cultured in Dulbecco's Modified Eagle Medium supplemented with 10% Fetal Bovine Serum and 1% penicillin/streptomycin at 37° C. in the presence of 5% CO2. For the protein transfection assay described below, cells were seeded in 96-well plates at a density of 10,000 cells per well a day prior to transfection.
# To evaluate protein delivery efficiency, Compositions A-D and Comparative Compositions A′-D′ and D″ described in Examples 1-4 were added to B16F10 cancer cells and incubated at 37° C. for 24 hours. The protein concentration was 3.3 μg/mL in PBS. Compound EC16-63, dissolved in the same volume of PBS, was used as a control. The cell viability was determined by the Alamar Blue assay after 24 hours of incubation. All transfection studies were performed in quadruplicate.
smiles,measurement,setting,value
CCCCCCCCCCCCCCC(O)CN(C)CCCN(C)CC(O)CCCCCCCCCCCCCC (centres unmarked) [Compound EC16-63],"cell viability (lipid-like compound alone, control)","24 hours incubation, compound dissolved in same volume of PBS, no protein",90%
same,cytotoxicity (in words),"lipid-like compound alone, 24 hours",low cytotoxicity
